Measurements from patent US12466781B2, “Thyromimetics” (Autobahn Therapeutics, Inc., priority 2019, dated 2025).

What was measured:
[1] = molecular target: T1, TRα (Homo sapiens, UniProt P10827); assay: Thyroid-hormone reporter-gene assay (TRα-Gal4 hybrid, luciferase, HEK293); type: cell-based; conditions: reporter cells, 24 hr incubation; Table 2; read-out: TRα (EC50)
T1 construct: expressed in transfected cells; host or cells: HEK293
T1 sequence (P10827 163-410 isoform P10827-2 limits assumed): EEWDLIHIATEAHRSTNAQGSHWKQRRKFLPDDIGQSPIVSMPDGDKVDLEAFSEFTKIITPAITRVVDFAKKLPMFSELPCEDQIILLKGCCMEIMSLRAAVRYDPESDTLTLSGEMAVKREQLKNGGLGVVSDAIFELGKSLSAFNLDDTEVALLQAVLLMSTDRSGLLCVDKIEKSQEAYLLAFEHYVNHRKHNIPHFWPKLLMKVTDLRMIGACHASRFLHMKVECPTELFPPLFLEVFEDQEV
Description: (§1) Compounds were tested for thyroid-hormone receptor activity using TR reporter-gene assays. Reporter cells used in the assays express a TR-receptor hybrid (either TRα or TRβ) in which the native N-terminal DNA binding domain (DBD) has been replaced with that of the yeast Gal4 DBD. The reporter gene, firefly luciferase, is functionally linked to the Gal4 upstream activation sequence (UAS). Both cell lines were derived from human embryonic kidney (HEK293).
(§2) Step 1: A suspension of reporter cells was prepared in cell recovery medium containing 10% charcoal-stripped FBS, and dispensed into assay plates. The plates were pre-incubated for 6 hours in a cell culture incubator (37° C./5% CO2/85% humidity).
(§3) These intermediate stocks were subsequently diluted directly into compound screening medium containing 10% charcoal-stripped FBS to generate “2×-concentration” treatment media (containing 0.2, 0.4 or 0.8% DMSO).
(§4) Step 3: At the end of the pre-incubation period, culture media were discarded from the assay plates, and all wells received 100 μl of compound screening medium. 100 μl of each of the previously prepared “2×-concentration” treatment media were dispensed into duplicate assay wells, thereby achieving the desired final treatment concentrations. The final concentration of DMSO in all assay wells was 0.1, 0.2 or 0.4%. Assay plates were incubated for 24 hr in a cell culture incubator (37° C./5% CO2/85% humidity).
(§5) Step 4: At the 24 h assay endpoint, treatment media were discarded and 100 μl/well of luciferase detection reagent was added. Relative luminometer units (RLUs) were quantified from each assay well.

[2] = molecular target: T2, TRβ (Homo sapiens, UniProt P10828); assay: Thyroid-hormone reporter-gene assay (TRβ-Gal4 hybrid, luciferase, HEK293); type: cell-based; conditions: Table 2; for T3-SI (selectivity index): calculated as EC50 (TRα)/EC50 (TRβ); for EC50: reporter cells, 24 hr incubation, read-out: TRβ (EC50)
T2 construct: expressed in transfected cells; host or cells: HEK293
T2 sequence (P10828 217-461 limits assumed): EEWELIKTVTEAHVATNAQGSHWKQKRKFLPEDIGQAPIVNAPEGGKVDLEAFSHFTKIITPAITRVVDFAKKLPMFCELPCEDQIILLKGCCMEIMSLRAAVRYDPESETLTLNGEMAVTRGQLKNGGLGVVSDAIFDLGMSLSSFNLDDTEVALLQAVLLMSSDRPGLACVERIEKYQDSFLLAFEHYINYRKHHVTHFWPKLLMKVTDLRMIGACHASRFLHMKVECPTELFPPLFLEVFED
Description: as §1, §2, §3, §4, §5

**Q.** Which results are given for `Cc1cc(OCC(=O)O)cc(C)c1Cc1ccc(O)c(C(C)C)c1F` [Compound 2, 2-(4-(2-fluoro-4-hydroxy-3-isopropylbenzyl)-3,5-dimethylphenoxy)acetic acid]?
**A.** EC50 [1]: > 1000 nM; T3-SI (selectivity index) [2]: ++ (3×<T3-SI≤30×); EC50 [2]: 100 to 1000 nM

**Q.** For `Cc1cc(OCC(=O)O)cc(C)c1Cc1ccc(O)c(-c2cccc(OC(F)F)c2)c1F` [Compound 3, 2-(4-((3′-(difluoromethoxy)-2-fluoro-6-hydroxy-[1,1′-biphenyl]-3-yl)methyl)-3,5-dimethylphenoxy)acetic acid], which EC50 [1] is on record?
**A.** Its EC50 is greater than 1000 nM.

**Q.** What about the “T3-SI (selectivity index)” value [2] of the same compound?
**A.** The value was “++ (3×<T3-SI≤30×)”.

**Q.** What about the EC50 [2] of the same compound?
**A.** The EC50 was 100 to 1000 nM.

**Q.** `Cc1cc(OCC(=O)O)cc(C)c1Cc1ccc(O)c(C(C)c2ccc(F)cc2)c1F` (stereo not drawn) [Compound 6, 2-(4-(2-fluoro-3-(1-(4-fluorophenyl)ethyl)-4-hydroxybenzyl)-3,5-dimethylphenoxy)acetic acid] was tested. Which EC50 [1] did it give?
**A.** Its EC50 is 10 to 100 nM.

**Q.** And the “T3-SI (selectivity index)” value [2]?
**A.** The value was “++ (3×<T3-SI≤30×)”.

**Q.** What about the EC50 [2] of the same compound?
**A.** The EC50 was less than 10 nM.

**Q.** `CCc1cc(OCC(=O)O)cc(C)c1Cc1ccc(O)c(C(C)C)c1F` [Compound 9, 2-(3-ethyl-4-(2-fluoro-4-hydroxy-3-isopropylbenzyl)-5-methylphenoxy)acetic acid] was tested. Which EC50 [1] did it give?
**A.** Its EC50 is 10 to 100 nM.

**Q.** What about the “T3-SI (selectivity index)” value [2] of the same compound?
**A.** Its value is “++ (3×<T3-SI≤30×)”.

**Q.** What about the EC50 [2] of the same compound?
**A.** The EC50 was 10 to 100 nM.

**Q.** For `C=C(C)c1cc(OCC(=O)O)cc(C)c1Cc1ccc(O)c(C(C)C)c1F` [Compound 12, 2-(4-(2-fluoro-4-hydroxy-3-isopropylbenzyl)-3-methyl-5-(prop-1-en-2-yl)phenoxy)acetic acid], which EC50 [1] is on record?
**A.** Its EC50 is 10 to 100 nM.

**Q.** And the “T3-SI (selectivity index)” value [2]?
**A.** Its value is “++ (3×<T3-SI≤30×)”.

**Q.** And the EC50 [2]?
**A.** The EC50 was less than 10 nM.

**Q.** What does the source list for `Cc1cc(OCC(=O)O)cc(C(C)C)c1Cc1ccc(O)c(C(C)C)c1F` [Compound 13, 2-(4-(2-fluoro-4-hydroxy-3-isopropylbenzyl)-3-isopropyl-5-methylphenoxy)acetic acid]?
**A.** EC50 [1]: < 10 nM; T3-SI (selectivity index) [2]: ++ (3×<T3-SI≤30×); EC50 [2]: < 10 nM

**Q.** With `CON(C)C(=O)COc1cc(Cl)c(Cc2ccc(O)c(C(C)C)c2F)c(Cl)c1` [Compound 22, 2-(3,5-dichloro-4-(2-fluoro-4-hydroxy-3-isopropylbenzyl)phenoxy)-N-methoxy-N-methylacetamide] as the compound, how does the EC50 [1] read?
**A.** The EC50 was 10 to 100 nM.

**Q.** What about the “T3-SI (selectivity index)” value [2] of the same compound?
**A.** Its value is “++ (3×<T3-SI≤30×)”.

**Q.** What about the EC50 [2] of the same compound?
**A.** The EC50 was 10 to 100 nM.

**Q.** Which results are given for `O=C(O)COc1cc(Cl)c(Cc2ccc(O)c(-c3cccc(OC(F)F)c3)c2F)c(Cl)c1` [Compound 24, 2-(3,5-dichloro-4-((3′-(difluoromethoxy)-2-fluoro-6-hydroxy-[1,1′-biphenyl]-3-VI)methyl)phenoxy)acetic acid]?
**A.** EC50 [1]: 100 to 1000 nM; T3-SI (selectivity index) [2]: ++ (3×<T3-SI≤30×); EC50 [2]: 10 to 100 nM

**Q.** `O=C(O)COc1cc(Cl)c(Cc2ccc(O)c(-c3cc(C(F)(F)F)ccc3F)c2F)c(Cl)c1` [Compound 25, 2-(3,5-dichloro-4-((2,2′-difluoro-6-hydroxy-5′-(trifluoromethyl)-[1,1′-biphenyl]-3-yl)methyl)phenoxy)acetic acid] was tested. Which EC50 [1] did it give?
**A.** The EC50 was 10 to 100 nM.

**Q.** And the “T3-SI (selectivity index)” value [2]?
**A.** The value was “++ (3×<T3-SI≤30×)”.

**Q.** And the EC50 [2]?
**A.** Its EC50 is less than 10 nM.

**Q.** How did the EC50 [1] turn out when `O=C(O)COc1cc(Cl)c(Cc2ccc(O)c(-c3cc(OC(F)F)ccc3F)c2F)c(Cl)c1` [Compound 26, 2-(3,5-dichloro-4-((5′-(difluoromethoxy)-2,2′-difluoro-6-hydroxy-[1,1′-biphenyl]-3-VI)methyl)phenoxy)acetic acid] was run?
**A.** Its EC50 is 100 to 1000 nM.

**Q.** What about the “T3-SI (selectivity index)” value [2] of the same compound?
**A.** Its value is “++ (3×<T3-SI≤30×)”.

**Q.** And the EC50 [2]?
**A.** Its EC50 is 10 to 100 nM.

**Q.** For `O=C(O)COc1cc(Cl)c(Cc2ccc(O)c(Cc3ccc(F)cc3)c2F)c(Cl)c1` [Compound 28, 2-(3,5-dichloro-4-(2-fluoro-3-(4-fluorobenzyl)-4-hydroxybenzyl)phenoxy)acetic acid], which EC50 [1] is on record?
**A.** Its EC50 is 10 to 100 nM.

**Q.** And the “T3-SI (selectivity index)” value [2]?
**A.** The value was “++ (3×<T3-SI≤30×)”.

**Q.** What about the EC50 [2] of the same compound?
**A.** The EC50 was 10 to 100 nM.

**Q.** `CC(c1ccc(F)cc1)c1c(O)ccc(Cc2c(Cl)cc(OCC(=O)O)cc2Cl)c1F` (stereo not drawn) [Compound 30, 2-(3,5-dichloro-4-(2-fluoro-3-(1-(4-fluorophenyl)ethyl)-4-hydroxybenzyl)phenoxy)acetic acid] was tested. Which EC50 [1] did it give?
**A.** Its EC50 is 10 to 100 nM.

**Q.** And the “T3-SI (selectivity index)” value [2]?
**A.** Its value is “++ (3×<T3-SI≤30×)”.

**Q.** What about the EC50 [2] of the same compound?
**A.** Its EC50 is less than 10 nM.
